In patent US10517870B2, “Aryl substituted bicycle heteroaryl compounds” (Bristol-Myers Squibb Company, priority 2015, dated 2019) one finds IC50 data, which are given here for 13 molecules.

What all share (format): cell-based
For one assay, the system named is SiHa (HPV16+) cells. Put plainly: Cell proliferation/viability assay, SiHa cells. Particulars: Homo sapiens, 96 h, 4 days. On the procedure:
(§1) Caski (catalog number CRL-1550), SiHa (catalog number HTB-35), C33A (catalog number HTB-31), Saos-2 (ATCC HTB-85), and Hela (catalog number CCL-2) cells were obtained from the American Type Culture Collection (ATCC). The human cervical carcinoma cell lines Caski. SiHa, Hela and C33A, and the human osteosarcoma cell line Saos-2, and the human keratinocyte cell line HaCaT were cultured in Dulbecco's Modified Eagle Medium (DMEM, Invitrogen catalog number 11965-092) supplemented with 10% fetal bovine serum. The colorectal carcinoma cell line HCT-116 was cultured in Roswell Park Memorial Institute-1640 Medium (Invitrogen catalog number 11875-093) supplemented with 10% FBS. All cells were incubated at 37° C. in a humidified atmosphere with 5% CO2 in air. To establish the SCHPV-18 cell line, one million primary neonatal human foreskin keratinocytes (Invitrogen, catalog no. C-001-5C), cultured in KBM Gold-keratinocvte cell basal medium (Lonza, catalog no. 192060), were electroporated with 5 μg HPV-18 plasmid DNA (ATCC catalog no. 45152D) using the Amaxa Nucleofector II on setting T-007. Cells were co-transfected with 2 μg plasmid pZSGreen1-N1 (Clontech catalog no. 632448) encoding G418 resistance, and cells were selected for four days in 100 μg/ml G418, after which selection was removed. Cells were maintained in culture six months prior to compound testing. Integration of the HPV 18 genome was confirmed by Southern blot. Control cells transfected in parallel with pZSGreen1-N1 alone became senescent four days after selection and the culture could not be expanded. SCHPV-18 cells were maintained in E medium (Fehrmann F, Laimins L A. Human papillomavirus type 31 life cycle: methods for study using tissue culture models. Methods Mol Biol 2005; 292:317-330).
(§2) For proliferation assays, cells were plated in white polystyrene 96-well plates (Costar catalog number 3917) for CellTiter Glo viability assays or 96-well special optics plates (Costar cat #3614) for CellTiter Blue viability assays. Cells were plated in the appropriate growth medium without antibiotics. Two hours after cell plating, a 200× compound stock diluted in DMSO was added to a final concentration of 0.5%. Plates were incubated at 37° C., for 4 days and then cell viability was assessed using either CellTiter Blue (Promega catalog number G8081) or CellTiter Glo (Promega catalog number G7572) according to the manufacturer's instructions. For the CellTiter Blue viability assay, data was collected using the SpectraMax Gemini EM (Molecular Devices) with an excitation wavelength of 530 nm and emission wavelength of 590 nm. For the CellTiter Glo viability assay, data was collected using the Envision Mulitlabel Reader (Perkin Elmer catalog number 2104-0010). To calculate IC50 and EC50 values, percent inhibition curves were fit using a four-parameter logistic formula [y=A+[…]], where A and B denote minimal and maximal % inhibition, respectively, C is the IC50 value, D is the Hill slope, and x represents compound concentration.
(§3) Table C, below, sets out the results obtained employing various compounds of the invention tested for their effects on proliferation of such cells. Caski or SiHa cells, transformed by HPV 16, Hela cells, transformed by HPV 18, or HPV-negative control cell lines (Saos-2 or C33a) were treated with various compounds. […] Unlike the HPV-negative Saos-2 or C33a cell lines, the HPV-transformed cell lines rely on the presence of HPV for their continued proliferation. Therefore, a comparison of IC50 values from HPV-transformed cell lines with IC50 values obtained from HPV-negative cell lines can be used to test for compound selectivity.

The subject of a further assay is HeLa (HPV18+) cells. Briefly: Cell proliferation/viability assay, HeLa cells. Conditions: Homo sapiens, 96 h, 4 days. The method, then: as §1, §2, §3
A further assay has as its system Saos-2 (HPV−) cells. Put plainly: Cell proliferation/viability assay, Saos-2 cells. Conditions: Homo sapiens. The method, then: as §1, §2, §3
Another assay relates to C33A (HPV−) cells. Briefly: Cell proliferation/viability assay, C33A cells. Particulars: Homo sapiens, C-33-A, 96 h. On the procedure:
as §1, §2, §3

For the next assay, the system named is Caski (HPV16+) cells. Briefly: Cell proliferation/viability assay, Caski cells. Particulars: Homo sapiens, Ca-Ski, 96 h, 4 days. The method, then:
as §1, §2, §3

A further assay addresses T1, PAR4 (Homo sapiens, UniProt Q96RI0).
T1 construct: expressed in transfected cells; host or cells: HEK293 PAR4 Clone 1.2A
T1 sequence (Q96RI0 18-385): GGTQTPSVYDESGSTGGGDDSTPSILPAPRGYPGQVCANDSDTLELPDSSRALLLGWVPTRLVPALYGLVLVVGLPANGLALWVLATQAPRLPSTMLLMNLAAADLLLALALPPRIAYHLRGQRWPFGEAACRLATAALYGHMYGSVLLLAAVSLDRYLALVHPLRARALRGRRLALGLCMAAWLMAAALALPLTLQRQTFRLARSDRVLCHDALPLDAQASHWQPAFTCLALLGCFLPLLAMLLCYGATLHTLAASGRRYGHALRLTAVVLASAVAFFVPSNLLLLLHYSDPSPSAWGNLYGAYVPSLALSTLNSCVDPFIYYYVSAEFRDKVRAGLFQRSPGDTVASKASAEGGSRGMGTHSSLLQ
Briefly: PAR4 FLIPR assay (calcium mobilization, antagonist activity) in PAR4-expressing HEK293 cells. An excerpt: The FLIPR assay is an exemplary in vitro assay for measuring the activity of the PAR4 antagonists of the present invention. In this assay, intracellular calcium mobilization is induced in PAR4 expressing cells by a PAR4 agonist and calcium mobilization is monitored.
HEK293 cells stably expressing PAR4 were generated by a standard method of transfection of human PAR4 (F2R23) cDNA expression vector and selected based on PAR4 protein expression or mRNA expression. […] These cells also express endogenous PAR1 and can elicit calcium signal upon stimulation with PAR1 agonist peptide. Therefore, the same cells were also used to determine selectivity against PAR1 and agonist activity for both receptors. Cells from HEK293 PAR4 Clone 1.2A (BMS Arctic ID 383940) were propagated and used for calcium mobilization studies.
FLIPR-based calcium mobilization assay in HEK293 cells was used to measure PAR4 antagonism, agonism, and selectivity against PAR1. The activity of the PAR4 antagonists of the present invention were tested in PAR4 expressing cells by monitoring H-Ala-Phe(4-F)-[…]NH2-induced intracellular calcium mobilization. Counter screens for agonist activity and PAR1 antagonist activity were also performed. Briefly, PAR1/PAR4-expressing HEK293 cells were grown in DMEM (Life Technology, Grand Island, N.Y.) containing 10% heat-inactivated FBS, 1% Penicillin-Streptomycin, 10 μg/mL blasticidin, and 100 μg/mL Zeocin at 37° C. with 5% CO2. Cells were plated overnight prior to the experiment in a black 384-well Purecoat Amine clear bottom plate (Becton Dickinson Biosciences, San Jose, Calif.) at 10,000 cells/well in 30 μL growth medium and incubated in a humidified chamber at 37° C. with 5% CO2 overnight. Prior to compound addition, the cell medium was replaced with 40 μL of IX calcium and magnesium-containing Hank's Balanced Saline Solution (HBSS) (with 20 mM HEPES) and 1:1000 diluted fluorescent calcium indicator (Codex Biosolutions, Gaithersburg, Md.). After a 30 minute incubation period at 37° C., and a further 30 minute incubation and equilibration period at room temperature, 20 μL test compound (diluted in 1×HBSS buffer) was added at various concentrations at 0.17% dimethyl sulfoxide (DMSO) final concentration. Changes in fluorescence intensity were measured using a Functional Drug Screening System (FDSS, Hamamatsu, Japan) to determine agonist activities. The cells were then incubated for 30 minutes at room temperature followed by addition of 20 μL of agonist peptide for antagonist activity measurement. […] Compound potency was derived from 11-point concentration-response curves.
In general terms: Calcium flux is commonly read through the fluorescence of an indicator in the cells.

The mark [1] stands for this setting: 96 h, Saos-2, HPV-negative, 4 days, read-out: Saos-2 (HPV−) Proliferation IC50.
Where [2] appears, read: C33A, HPV-negative, 4 days, read-out: C33A (HPV−) Proliferation IC50.
The mark [3] stands for this setting: SAOS-2, 96 h, read-out: Saos-2 (HPV−) Proliferation IC50 (μM).
The mark [4] stands for this setting: read-out: C33A (HPV−) Proliferation IC50 (μM).

Where two headings read alike, the source gives them in different places.

As to `Cc1cc(-c2cccc(C(F)(F)F)c2)c2ncc(OC(F)F)nc2c1` [Example 25, 2-(difluoromethoxy)-7-methyl-5-(3-(trifluoromethyl)phenyl)quinoxaline], the IC50 in the assay with SiHa (HPV16+) cells was 11.7 µM; with HeLa (HPV18+) cells, 15.2 µM; with Saos-2 (HPV−) cells (setting [1]) it was above 100 µM; in the assay on C33A (HPV−) cells (setting [2]), above 100 µM; in the assay on Caski (HPV16+) cells, 14.5 µM.

Turning to `COC(=O)c1cc(-c2ccc(OC)cc2)c2ncc(OC(F)F)nc2c1` [Example 4, Methyl 3-(difluoromethoxy)-8-(4-methoxyphenyl)quinoxaline-6-carboxylate], the IC50 is 1 µM at PAR4, above 100 µM in the assay with Saos-2 (HPV−) cells (setting [3]), 53.4 µM with C33A (HPV−) cells (setting [4]) and 12.6 µM in the assay on Caski (HPV16+) cells.

For `COc1ccc(-c2cc(C(F)(F)F)cc3ncc(OC(F)F)nc23)cc1` [Example 14, 2-(difluoromethoxy)-8-(4-methoxyphenyl)-6-(trifluoromethyl)quinoxaline], the IC50 in the assay on SiHa (HPV16+) cells was 2.9 µM; with HeLa (HPV18+) cells it was 2.6 µM; with Saos-2 (HPV−) cells (setting [1]) it was 57.7 µM; in the assay on C33A (HPV−) cells (setting [2]), 49.9 µM; in the assay on Caski (HPV16+) cells it was 2.8 µM.

`COc1cccc(-c2cc(C(F)(F)F)cc3nc(OC(F)F)cnc23)c1` [Example 10, 2-(difluoromethoxy)-5-(3-methoxyphenyl)-7-(trifluoromethyl)quinoxaline]: the IC50 in the assay on SiHa (HPV16+) cells was 5.1 µM; in the assay with HeLa (HPV18+) cells, 4.4 µM; in the assay on Saos-2 (HPV−) cells (setting [1]), 55 µM; in the assay on C33A (HPV−) cells (setting [2]) it was above 99.5 µM; with Caski (HPV16+) cells, 3.9 µM.

Turning to `COc1ccc(-c2cc(C)cc3nc(OC(F)F)cnc23)cc1C(F)(F)F` [Example 16, 2-(difluoromethoxy)-5-(4-methoxy-3-(trifluoromethyl)phenyl)-7-methylquinoxaline], the IC50 in the assay on SiHa (HPV16+) cells was 9.4 µM; in the assay with HeLa (HPV18+) cells, 9.1 µM; with Saos-2 (HPV−) cells (setting [1]), above 99.5 µM; in the assay with C33A (HPV−) cells (setting [2]) it was above 99.5 µM; in the assay on Caski (HPV16+) cells, 7 µM.

Consider `C=Cc1cc(-c2ccc(OC)cc2)c2ncc(OC(F)F)nc2c1` [Example 3, 2-(difluoromethoxy)-5-(4-methoxyphenyl)-7-vinylquinoxaline], for which the IC50 at PAR4 is 0.69 µM; in the assay on Saos-2 (HPV−) cells (setting [3]), above 100 µM; with C33A (HPV−) cells (setting [4]), above 100 µM; in the assay with Caski (HPV16+) cells it was 61.9 µM.

On to `COc1ccc(-c2cc(C(F)(F)F)cc3nc(OC(F)F)cnc23)cc1C(F)(F)F` [Example 9, 2-(difluoromethoxy)-5-(4-methoxy-3-(trifluoromethyl)phenyl)-7-(trifluoromethyl)quinoxaline], for which the IC50 in the assay with SiHa (HPV16+) cells turned out to be 1.7 µM; with HeLa (HPV18+) cells, 1.5 µM; in the assay with Saos-2 (HPV−) cells (setting [1]) it was 76.2 µM; in the assay with C33A (HPV−) cells (setting [2]), 78.7 µM; with Caski (HPV16+) cells, 3.3 µM.

Turning to `COc1ccc(-c2cc(Br)cc3nc(OC(F)F)cnc23)cc1` [Example 27, 7-bromo-2-(difluoromethoxy)-5-(4-methoxyphenyl)quinoxaline], the IC50 at PAR4 came out at 2.6 µM.

Regarding `COc1ccc2cc(-c3cc(C(F)(F)F)cc4nc(OC(F)F)cnc34)ccc2c1` [Example 11, 2-(difluoromethoxy)-5-(6-methoxynaphthalen-2-yl)-7-(trifluoromethyl)quinoxaline], the IC50 in the assay on SiHa (HPV16+) cells is 2.7 µM; with HeLa (HPV18+) cells, 2.1 µM; in the assay with Saos-2 (HPV−) cells (setting [1]), 45.9 µM; in the assay with C33A (HPV−) cells (setting [2]) it was above 99.5 µM; in the assay with Caski (HPV16+) cells, 2.9 µM.

For the molecule `COc1ccc(-c2cc(C(F)(F)F)cc3nc(OC(F)F)cnc23)cc1F` [Example 12], the IC50 in the assay on SiHa (HPV16+) cells was 1.3 µM; with HeLa (HPV18+) cells, 1.1 µM; in the assay with Saos-2 (HPV−) cells (setting [1]), 14.3 µM; with C33A (HPV−) cells (setting [2]), above 99.5 µM; in the assay on Caski (HPV16+) cells, 3.2 µM.

For `COc1ccc(-c2cc3ncc(OC(F)F)nc3cc2C(F)(F)F)cc1` [Example 7, 2-(difluoromethoxy)-6-(4-methoxyphenyl)-7-(trifluoromethyl)quinoxaline], the IC50 in the assay with SiHa (HPV16+) cells was 4.3 µM; with HeLa (HPV18+) cells, 4.4 µM; with Saos-2 (HPV−) cells (setting [1]), 92.1 µM; in the assay on C33A (HPV−) cells (setting [2]), above 100 µM; with Caski (HPV16+) cells it was 5 µM.

For `Cc1cc(-c2ccc(F)c(C(F)(F)F)c2)c2ncc(OC(F)F)nc2c1` [Example 17, 2-(difluoromethoxy)-5-(4-fluor-3-(trifluoromethyl)phenyl)-7-methylquinoxaline], the IC50 stood at 17.8 µM with SiHa (HPV16+) cells; 23.7 µM in the assay on HeLa (HPV18+) cells; 96.5 µM in the assay on Saos-2 (HPV−) cells (setting [1]); 58.3 µM with C33A (HPV−) cells (setting [2]); 17.9 µM in the assay on Caski (HPV16+) cells.

With `COc1cc(-c2cc(C(F)(F)F)cc3nc(OC(F)F)cnc23)cc(C(F)(F)F)c1` [Example 13, 2-(difluoromethoxy)-5-(3-methoxy-5-(trifluoromethyl)phenyl)-7-(trifluoromethyl)quinoxaline], the IC50 in the assay with SiHa (HPV16+) cells stood at 24 µM; in the assay on HeLa (HPV18+) cells it was 37 µM; in the assay on Saos-2 (HPV−) cells (setting [1]), 40.3 µM; in the assay with C33A (HPV−) cells (setting [2]) it was 40.5 µM; in the assay with Caski (HPV16+) cells, 15.6 µM.
